Like-named read-outs stand apart in the source and are kept apart here.
Columns and labels:
[1] = tested on: RJ002L melanoma cells; test: Dosing study versus chemotherapeutic agents, killing of RJ002L melanoma cells; type: cell-based, human
Protocol: (§1) An initial dosing study comparing z-Leu-Leu-Nle-CHO against three different chemotherapeutic agents (i.e., adriamycin, etoposide, and cisplatin) was performed to evaluate the relative effectiveness of z-Leu-Leu-Nle-CHO in killing melanoma cells. In agreement with a previous report by Soengas, M. S. et al., 2001, Nature 409.207-211, SK-MeI-28 cells, carrying a mutated p53, were relatively resistant to killing by adriamycin, as well as to killing by other chemotherapeutic agents. For SK-MeI-28 melanoma cells, the maximal apoptotic response for adriamycin, etoposide, cisplatin, and z-Leu-Leu-Nle-CHO was 12.0%, 2.6%, 4.0%, and 29.4%, respectively. For RJ002L melanoma cells, the maximal apoptotic response for adriamycin, etoposide, cisplatin, and z-Leu-Leu-Nle-CHO was 23.9%, 12.7%, 3.4%, and 45.7%, respectively.

[2] = tested on: NOXA; test: Western blot of pro-survival and pro-apoptotic proteins in melanoma cells; type: cell-based, human; details: several melanoma cell lines, similar time points; data not shown
Protocol: To assess the effect of z-Leu-Leu-Nle-CHO on pro-apoptotic proteins, RJ002L pulmonary metastases melanoma cells were grown in RPMI supplemented with 10% FBS. Highly proliferating cells (i.e., cells that had reached approximately 30% confluency) were exposed to z-Leu-Leu-Nle-CHO by replenishing the culture media with media containing z-Leu-Leu-Nle-CHO (10 μM) (experimental group) or media without z-Leu-Leu-Nle-CHO (control group) and the cells were incubated for a specified period of time prior to harvesting the cells for further analysis.
Western blot analyses following z-Leu-Leu-Nle-CHO and control treatment of RJ002L melanoma cells were performed to determine the effect of z-Leu-Leu-Nle-CHO on pro-survival and pro-apoptotic proteins. Whole cell extracts were prepared and analyzed as described by Denning, M. F. et al., 1998, J Biol Chem 273: 29995-30002, 1998. The enriched mitochondria pellet and mitochondria-free cytosol of melanoma cells were prepared with the APO ALERT cell fraction kit (Clontech Laboratories, Inc. Palo Alto, Calif.) according to the manufacturer's instructions. For Western blot analysis, equal amounts of protein extracted from each sample (20-30 μg) were loaded into pre-cast 7% NuPAGE Tris-acetate gels or 4-12% NuPAGE Bis-tris gels (Invitrogen). Proteins were separated by SDS-PAGE and transferred to polyvinylidene difluoride membranes (Bio-Rad, Hercules, Calif.) using Invitrogen's buffering system. The indicated primary antibodies were incubated for indicated period of time, washed, and visualized by incubation with horseradish peroxidase-conjugated secondary antibodies and chemiluminescent reagents (Roche Diagnostics Corporation, Indianapolis, Ind.). Antibodies used were as follows: From Santa Cruz Biotechnology: Bcl-2 (SC-7382), BCl-xL (SC-634), Mcl-1 (SC-819), survivin (SC-10811), Bax (SC-493), Bak (SC-832), Bim (SC-11425), PUMA (SC-19187), p53 (SC-126), and GADD45 (SC-796); From Cell Signaling: Bid (#2002), and cleaved caspase 9 (9501); NOXA (OP180—Oncogene Research Products), Apaf-1 (559683-BD Bioscience), Smac/Diablo (IMG-248-Imgenex), cytochrome C (part of kit—Apo Alert™ cell fraction kit—Clontech Laboratories, Inc.—Palo Alto, Calif.), PARP (Pharmingen, San Diego, Calif.) and β-actin (Sigma Chemical Co., St. Louis, Mo.). Secondary antibodies anti-goat, anti-mouse, anti-rabbit and anti-rat (IgG-HRP) were purchased from Vector Laboratories (Burlingame, Calif.), Santa Cruz Biotechnology and Amersham Biosciences.
To determine if p53 status influences induction of NOXA, NOXA induction in z-Leu-Leu-Nle-CHO-treated melanoma cell lines (10 μM) containing p53 mutations (i.e. C8161, SK-MeI-28, MUM2B) were examined using Western blot analysis as described above and compared to that of Western blot results from z-Leu-Leu-Nle-CHO-treated melanoma cell lines (10 μM) having wild-type p53 (RJ002L, SK-MeI-100). […] In contrast, C8161, which carries a R196Stop mutation in only one allele, has p53 expression similar to that observed in wild-type cell lines. […] NOXA induction occurred earlier in SK-MeI-100 cells than in the other tested cell lines (FIG. 2C). Apaf-1 levels were not increased in response to z-Leu-Leu-Nle-CHO (data not shown).

[3] = tested on: SK-MeI-28 melanoma cells; test: Dosing study versus chemotherapeutic agents, killing of SK-MeI-28 melanoma cells; type: cell-based, human; details: SK-MeI-28, mutated p53
Protocol: as §1

[4] = tested on: CaSki human cervical cancer cells; test: Cell growth inhibition assay in CaSki cervical cancer cells (crystal violet); type: cell-based; details: 48 hrs, read-out: IC50 of cisplatin
Protocol: The cell growth inhibition assay was performed in a 96-well plate format. Inhibition was assessed by monitoring the protein content in each well using the crystal violet staining method as described by Skehan et al., 1990, J Natl Cancer Inst 82:1107-1112 and Prochaska et al., 1988, Anal Biochem 169:328-336. Briefly, cells were plated at a density of 2×10^4 cells/ml in 200 μl of DMEM supplemented with 10% FBS. The cells were transfected with siRNAs ([…] siRNA oligos/well) using Oligofectamine Transfection Reagents (InVitrogen) according to manufacturer's instructions. Twenty-four hours post-transfection, the media was decanted, 190 μl of fresh media was added to each well, and 10 μl of cisplatin (4 mM) dissolved in 10% DMSO was added to the wells as a series 2-fold dilutions (final concentration of cisplatin in the wells ranged from 0.5-200 μM). The cells were incubated with cisplatin for 48 hrs, the media was decanted, and the cells were submerged with 200 μl of 0.2% crystal violet in 2% ethanol for 10 min. The plates were rinsed for 2 min with tap water. The bound dye was solublized by incubation at 37° C. for 1 h with 200 μl of 0.5% sodium dedecyl sulfate in 50% ethanol. The plates were then scanned with an ELISA reader at 562 nm. The percentage cell growth inhibition mediated by cisplatin was calculated as: % inhibition=[1-(OD of cisplatin-treated cells/OD DMSO-treated control cells)]×100/100.
CaSki human cervical cancer cells treated for 48 hrs with z-Leu-Leu-Nle-CHO alone were tested for cell growth inhibition. The cell growth inhibition assay was performed in a 96-well plate format. Inhibition was assessed by monitoring the protein content in each well using the crystal violet staining method Skehan, P. et al., 1990, J Natl Cancer Inst 82:1107-1112. Briefly, cells were plated at a density of 2×10^4 cells/ml in 200 μl of DMEM supplemented with 10% FBS. After pre-incubation period of 24 h, the media was decanted, 190 μl of fresh media was added to each well, and 10 μl (150 μM) of z-Leu-Leu-Nle-CHO dissolved in 10% DMSO was added to the wells as a series 2-fold dilutions (final concentration of cisplatin in the wells ranged from 0.05-7.5 μM). The cells were incubated with z-Leu-Leu-Nle-CHO for 48 hrs, the media was decanted, and the cells were submerged with 200 μl of 0.2% crystal violet in 2% ethanol for 10 min. The plates were rinsed for 2 min with tap water. The bound dye was solublized by incubation at 37° C. for 1 h with 200 μl of 0.5% sodium dedecyl sulfate in 50% ethanol. The plates were then scanned with an ELISA reader at 562 nm. The percentage cell growth inhibition mediated by test agents was calculated as: % inhibition=[1-(OD of z-Leu-Leu-Nle-CHO-treated cells/OD DMSO-treated control cells)]×100/100.
To determine whether z-Leu-Leu-Nle-CHO treatment potentiates the effect of cisplatin on human […] cancer cells, the CaSki cells were treated for 48 h with 0.1-0.8 μM z-Leu-Leu-Nle-CHO and various concentrations of cisplatin (2-fold dilutions of a cisplatin solution to produce final concentrations of 1.6-200 μM cisplatin). Following the z-Leu-Leu-Nle-CHO and cisplatin treatment, the cells were tested for growth inhibition as described above.
Isobologram analysis was performed by measuring the IC50 values of cisplatin in the presence of various concentrations of z-Leu-Leu-Nle-CHO. These IC50 values were plotted with SigmaPlot, and a straight line was traced between the IC50 values of cells treated with either cisplatin or z-Leu-Leu-Nle-CHO alone.

Structure (SMILES): COc1cccc2c1C(=O)c1c(O)c3c(c(O)c1C2=O)C[C@@](O)(C(=O)CO)C[C@@H]3O[C@H]1C[C@H](N)[C@H](O)[C@H](C)O1 [adriamycin]
- maximal apoptotic response [1]: 23.9%
- NOXA induction by DNA damaging agents [2]: did not induce NOXA
- maximal apoptotic response [3]: 12.0%

Structure (SMILES): COc1cc([C@@H]2c3cc4c(cc3[C@@H](O[C@@H]3O[C@@H]5CO[C@@H](C)O[C@H]5[C@H](O)[C@H]3O)[C@H]3COC(=O)[C@H]23)OCO4)cc(OC)c1O [etoposide]
- maximal apoptotic response [1]: 12.7%
- NOXA induction by DNA damaging agents [2]: did not induce NOXA
- maximal apoptotic response [3]: 2.6%

Structure (SMILES): N.N.[Cl][Pt][Cl] [cisplatin]
- maximal apoptotic response [1]: 3.4%
- IC50 ([4]; in combination with Notch-1 siRNA): 0.46 µM
- IC50 ([4]; without Notch-1 siRNA): 27.3 µM
- NOXA induction by DNA damaging agents [2]: did not induce NOXA
- maximal apoptotic response [3]: 4.0%

From patent publication US20080220416A1, “Compositions for Inhibiting Cell Growth and Inducing Apoptosis in Cancer Cells and Methods of Use Thereof” (THE BOARD OF TRUSTEES OF THE UNIVERSITY OF ILLINOI, priority 2004, published 2008)
